Consider six molecules from patent publication EP0057900B1, “Animal feed additive for improving growth” (Dr. Karl Thomae GmbH, priority 1981, dated 1982).

The nature of series [1]: Acute toxicity in mice after i.v. administration. The format is in vivo, Mäusen. To be noted: mouse, in vivo, iv, mean weight 22 g, i. v. in physiological saline, dose at which 50% of animals died, observation time 14 days, Litchfield and Wilcoxon. An excerpt:
(§1) Die akute Toxizität der zu untersuchenden Substanzen, welche in physiologischer Kochsalzlösung gelöst wurden, wurde an Mäusen mit einem durchschnittlichen Gewicht von 22 g nach i. v. Gabe (0.1 mt/10 g) bestimmt. Es wurde die LD50, die Dosis bei welcher 50% der Tiere nach einer Beobachtungszeit von 14 Tagen verstarben, nach der Methode von Litchfield und Wilcoxon (J. Pharmacol. exp. Ther. 96, 99-113 (1949)) berechnet.

Series [2] concerns Mäusen. The series can be described thus: Acute toxicity in mice after i.v. administration. The format is in vivo. To be noted: mean weight 22 g, i. v. in physiological saline, dose at which 50% of animals died, observation time 14 days, Litchfield and Wilcoxon.
From the text: as §1

Series [3] deals with Fettsäuregehalt des Blutes. The series can be described thus: Lipolytic effect in rabbits (blood fatty acid content, method of Duncombe). It is filed as in vivo, Kaninchen. To be noted: Oryctolagus cuniculus, iv; male and female rabbits, mean weight 2,3 kg; i. v. in physiological saline; dose causing a 50% reduction of blood fatty acid content; calculated according to Fieler; read-out: ED50 µg/kg i. v. The text has this:
Beispielsweise wurde die lipolytische Wirkung der Verbindungen • A = 1-(4-Amino-3-cyan-5-fluor-phenyl)-2-tert.butylamino-äthanol-hydrochlorid, • B = 1-(4-Amino-3-cyan-5-fluor-phenyl)-2-isopropylamino-äthanol-hydrochforid, • C = 1-(4-Amino-3-cyan-5-fluor-phenyl)-2-cyclobutylamino-äthanol-hydrochlorid, • D = 1-(4-Amino-3-chlor-5-cyan-phenyl)-2-isopropylamino-äthanol-hydrochlorid, • E = 1-(4-Amino-3-chlor-5-cyan-phenyl)-2-cyclobutylamino-äthanol-hydrochlorid, • F = 1-(4-Amino-3-chlor-5-cyan-phenyl)-2-cyclopentylamino-äthanol-hydrochlorid und • G = 1-(4-Amino-3-chlor-5-trifluormethylphenyl)-2-cyclobutylamino-äthanor-hydrochlorid
an Kaninchen wie folgt geprüft:
Die zu untersuchenden Substanzen wurden männlichen und weiblichen Kaninchen mit einem durchschnittlichen Gewicht von 2,3 kg, gelöst in physiologischer Kochsalzlösung i. v. injiziert (0,2 mg/kg). Der Fettsäuregehalt des Blutes wurde nach der Methode von Duncombe (Biochem. J. 88, 7-10 (1963)) bestimmt. Es wurde die EDso, die Dosis, die eine 50%ige Senkung des Fettsäuregehaltes bewirkt, nach Fieler (Quart. J. Pharm. Pharmacol. 17, 117―123 (1964)) berechnet.

Structures can show the parent of a compound that is named as a salt.

The term LD50 denotes the dose at which mortality reaches 50%. A lower LD50 goes with greater toxicity. Regarding `CC(C)(C)NCC(O)c1cc(F)c(N)c(C#N)c1` (stereo not shown) [A, 1-(4-Amino-3-cyan-5-fluor-phenyl)-2-tert.butylamino-äthanol-hydrochlorid], in series [1], the median lethal dose (LD50) at 336 h turned out to be 73.6 mg/kg.
As to `CC(C)NCC(O)c1cc(F)c(N)c(C#N)c1` (stereo not shown) [B, 1-(4-Amino-3-cyan-5-fluor-phenyl)-2-isopropylamino-äthanol-hydrochforid], the “LD50 mg/kg i. v.” value in series [2] is on record as 66,4 mg/kg.
Turning to `CC(C)NCC(O)c1cc(Cl)c(N)c(C#N)c1` (stereo not shown) [D, 1-(4-Amino-3-chlor-5-cyan-phenyl)-2-isopropylamino-äthanol-hydrochlorid], the LD50 at 336 h in series [1] was determined as 81 mg/kg.
For `N#Cc1cc(C(O)CNC2CCCC2)cc(Cl)c1N` (stereo not shown) [F, 1-(4-Amino-3-chlor-5-cyan-phenyl)-2-cyclopentylamino-äthanol-hydrochlorid], the ED50 in series [3] is 0.16 µg/kg. Besides, the “LD50 mg/kg i. v.” value in series [2] is given as 39,1 mg/kg.
For `Nc1c(Cl)cc(C(O)CNC2CCC2)cc1C(F)(F)F` (stereo not shown) [G, 1-(4-Amino-3-chlor-5-trifluormethylphenyl)-2-cyclobutylamino-äthanor-hydrochlorid], the ED50 in series [3] is 0.46 µg/kg.
Regarding `N#Cc1cc(C(O)CNC2CCC2)cc(Cl)c1N` (stereo not shown) [Verbindung E, 1-(4-Amino-3-chlor-5-cyan-phenyl)-2-cyclobutylamino-äthanol-hydrochlorid], the LD50 at 336 h in series [1] was 43.9 mg/kg.
